Measurements published in ChEMBL document CHEMBL1201862, “PubChem BioAssay data set” (2004).
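Cultured in 96-well plates, cells were exposed to test compound for 48 hours across five concentrations. GI50 is the concentration that inhibits growth by half.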 Calls of active or inactive are those of the source. Cut-off read from the data, not from the text of the source: active = GI50 up to about 1.1 µM and inactive = higher.

Columns and labels:
Assay in all cases: DTP human tumour cell line panel, 48 h
786-0 = system: 786-0
ACHN = system: ACHN
COLO 205 = system: COLO 205
HCT-116 = system: HCT-116
HL-60 = system: HL-60
HOP-92 = system: HOP-92
IGROV-1 = system: IGROV-1
M14 = system: M14
MDA-N = system: MDA-N
OVCAR-5 = system: OVCAR-5
OVCAR-8 = system: OVCAR-8
SF-295 = system: SF-295
SK-MEL-2 = system: SK-MEL-2
SK-OV-3 = system: SK-OV-3
TK-10 = system: TK-10
U-251 = system: U-251
UACC-62 = system: UACC-62
UO-31 = system: UO-31
DU-145 = system: DU-145
RXF 393 = system: RXF 393

Measured: GI50

CCOC(=O)NC(C(=O)OCC)C(F)(F)F (configuration not stated)
inactive: 786-0 > 100 µM | ACHN > 100 µM | COLO 205 > 100 µM | HCT-116 > 100 µM | HL-60 23.9 µM | HOP-92 71.4 µM | IGROV-1 > 100 µM | M14 > 100 µM | MDA-N > 100 µM | OVCAR-5 > 100 µM | OVCAR-8 > 100 µM | SF-295 > 100 µM | SK-MEL-2 > 100 µM | SK-OV-3 > 100 µM | TK-10 > 100 µM | U-251 > 100 µM | UACC-62 > 10 µM | UO-31 > 100 µM

COc1cccc(/C=C2\N=C(Cl)OC2=O)c1O
inactive: 786-0 > 94.6 µM | ACHN > 100 µM | COLO 205 > 100 µM | DU-145 > 100 µM | HCT-116 > 100 µM | HL-60 > 100 µM | HOP-92 > 100 µM | IGROV-1 > 100 µM | M14 > 100 µM | OVCAR-5 > 100 µM | OVCAR-8 > 100 µM | RXF 393 > 100 µM | SF-295 > 100 µM | SK-MEL-2 > 100 µM | SK-OV-3 > 38.7 µM | TK-10 > 100 µM | U-251 > 85.9 µM | UACC-62 > 100 µM | UO-31 > 100 µM

C=CC[C@]1(/C=N/O)CN(S(=O)(=O)CC[Si](C)(C)C)C[C@H]2CC=CC[C@H]21
inactive: 786-0 18.5 µM | ACHN > 10 µM | COLO 205 17.3 µM | DU-145 20.6 µM | HCT-116 14.2 µM | IGROV-1 15.4 µM | M14 20.2 µM | MDA-N 20.3 µM | OVCAR-5 21.7 µM | OVCAR-8 24 µM | RXF 393 13.6 µM | SF-295 15.6 µM | SK-MEL-2 15 µM | SK-OV-3 24.2 µM | TK-10 19.5 µM | U-251 17.7 µM | UACC-62 16.6 µM | UO-31 26.3 µM

O=C(O)C1CC2(C1)CC(C(=O)O)C2 (configuration not stated)
inactive: 786-0 > 100 µM | ACHN > 100 µM | COLO 205 > 100 µM | DU-145 > 100 µM | HCT-116 > 100 µM | IGROV-1 > 100 µM | M14 > 100 µM | MDA-N > 100 µM | OVCAR-5 > 100 µM | RXF 393 > 100 µM | SF-295 > 100 µM | SK-MEL-2 > 100 µM | SK-OV-3 > 100 µM | TK-10 > 100 µM | U-251 > 100 µM | UACC-62 > 100 µM | UO-31 > 100 µM
